Data: US6465482B2, “Arylpiperazinyl-cyclohexyl indole derivatives for the treatment of depression” (Wyeth, priority 1999, dated 2002)

Tests used:
[1] = target: T1, human 5-HT1A receptor subtype (Homo sapiens, UniProt P08908); assay: 5-HT1A receptor binding, [3H]8-OH-DPAT, CHO cell membranes; conditions: [3H]8-OH-DPAT 1.5 nM
T1 construct: expressed in transfected cells
T1 sequence (P08908 1-422): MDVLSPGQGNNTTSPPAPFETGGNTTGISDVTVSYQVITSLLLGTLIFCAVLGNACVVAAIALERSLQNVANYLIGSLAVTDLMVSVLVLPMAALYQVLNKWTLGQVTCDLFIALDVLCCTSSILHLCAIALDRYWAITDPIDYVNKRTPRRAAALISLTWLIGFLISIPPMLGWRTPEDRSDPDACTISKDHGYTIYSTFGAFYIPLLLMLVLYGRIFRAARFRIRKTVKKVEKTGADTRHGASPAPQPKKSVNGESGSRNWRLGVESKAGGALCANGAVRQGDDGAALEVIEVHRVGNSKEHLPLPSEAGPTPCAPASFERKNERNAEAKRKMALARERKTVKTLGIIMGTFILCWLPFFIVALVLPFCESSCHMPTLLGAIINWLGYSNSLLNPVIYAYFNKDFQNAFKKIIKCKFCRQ
Experimental: (§1) The PCR cloning of the human 5-HT1A receptor subtype from a human genomic library has been described previously Chanda et al., Mol. Pharmacol., 43:516 (1993). A stable Chinese hamster ovary cell line expressing the human 5-HT1A receptor subtype (5-HT1A.CH2O cells) was employed throughout this study. Cells were maintained in DMEM supplemented with 10% fetal calf serum, non-essential amino acids and penicillin/streptomycin.
Cells were grown to 95-100% confluency as a monolayer before membranes were harvested for binding studies. Cells were gently scraped from the culture plates, transferred to centrifuge tubes, and washed twice by centrifugation (2000 rpm for 10 min., 4° C.) in buffer (50 mM Tris; pH 7.5). The resulting pellets were aliquoted and placed at −80° C. On the day of assay, the cells were thawed on ice, and resuspended in buffer. Studies were conducted using [^3H]8-OH-DPAT as the radioligand. The binding assay was performed in 96 well microtiter plates in a final total volume of 250 μL of buffer. Competition experiments were performed by using 7 concentrations of unlabelled drug and a final ligand concentration of 1.5 nM. Non-specific binding was determined in the presence of 10 μM 5HT. Saturation analysis was conducted by using [^3H]8-OH-DPAT at concentaritions ranging from 0.3-30 nm Following a 30 minute incubation at room temperature, the reaction was terminated by the addition of ice cold buffer and rapid filtration using a M-96 Brandel Cell Harvester (Gaithersburg, Md.) through a GF/B filter presoaked for 30 minutes in 0.5% polyethylenenimine.

[2] = target: T2, 5-HT1A cloned receptor membrane fragments (Homo sapiens, UniProt P08908); assay: [35S]-GTPγS binding assay; assay type: biochemical; conditions: relative to excess 8-OH-DPAT maximum agonist response
T2 construct: expressed in transfected cells
T2 sequence (P08908 1-422): T1 sequence (P08908 1-422)
Experimental: The [^35S]-GTPγS biding assay was similar to that used by Lazarenno and Birdsall, Br. J. Pharmacol. 109:1120 (1993). Briefly, 5-HT1A cloned receptor membrane fragments (as used for 5-HT1A receptor binding assays were stored at −70° C. unit needed. When needed, membranes were rapidly thawed, centrifuged at […] for 10 minutes and resuspended at 4° C. for 10 minutes in assay buffer (25 mM HEPES, 3 mM MgCl2, 100 mM NaCl, 1 mM EDTA, 10 uM GDP, […], pH 8.0). These membranes were then incubated for 30 minutes at 30+ C. with [^35S]GTPgS (1 nM) in the presence of vehicle, test compound (one to eight concentrations), or excess 8-OH-DPAT to define maximum agonist response. All reactions are terminated by the addition of ice cold Tris buffer followed by rapid filtration using a Tom Tech® filtration device to separate bound from free [^35S]GTPgS. Agonists produce an increase in the amount of [^35S]GTPgS bound whereas antagonists produce no increase in binding. Bound radioactivity was counted and analyzed as above.

[3] = target: T3, human 5-HT1A receptor subtype (5-HT1A CHO cells) (Homo sapiens, UniProt P08908); assay: forskolin-stimulated cAMP formation (cAMP SPA assay); assay type: cell-based; conditions: forskolin 1 uM
T3 construct: expressed in transfected cells
T3 sequence (P08908 1-422): T1 sequence (P08908 1-422)
Experimental: as §1
The following assays were performed by incubating the cells with DMEM containing 25 mM HEPES, 5 mM theophylline and 10 μM pargyline for a period of 20 minutes at 37° C. Functional activity was assessed by treating the cells with forskolin (1 uM final concentration) followed immediately by test compound (6 concentrations) for an additional 10 minutes at 37° C. In separate experiments, 6 concentrations of antagonist were preincubated for 20 minutes prior to the addition of 10 nM 8-OH-DPAT and forskolin. The reaction was terminated by removal of the media and addition of 0.5 ml ice cold assay buffer. Plates were stored at −20° C. prior to assessment of cAMP formation by a cAMP SPA assay (Amersham).

serotonin transporter = target: T4, serotonin transporter (Rattus norvegicus, UniProt P31652); assay: serotonin transporter affinity, 3H-paroxetine binding, frontal cortical membranes; conditions: 3H-paroxetine 0.1 nM; read-out: ST (Ki, nM,)
T4 construct: frontal cortical membranes prepared from male Sprague-Dawley rats; from tissue; host or cells: rat frontal cortex membranes
T4 sequence (P31652 whole entry): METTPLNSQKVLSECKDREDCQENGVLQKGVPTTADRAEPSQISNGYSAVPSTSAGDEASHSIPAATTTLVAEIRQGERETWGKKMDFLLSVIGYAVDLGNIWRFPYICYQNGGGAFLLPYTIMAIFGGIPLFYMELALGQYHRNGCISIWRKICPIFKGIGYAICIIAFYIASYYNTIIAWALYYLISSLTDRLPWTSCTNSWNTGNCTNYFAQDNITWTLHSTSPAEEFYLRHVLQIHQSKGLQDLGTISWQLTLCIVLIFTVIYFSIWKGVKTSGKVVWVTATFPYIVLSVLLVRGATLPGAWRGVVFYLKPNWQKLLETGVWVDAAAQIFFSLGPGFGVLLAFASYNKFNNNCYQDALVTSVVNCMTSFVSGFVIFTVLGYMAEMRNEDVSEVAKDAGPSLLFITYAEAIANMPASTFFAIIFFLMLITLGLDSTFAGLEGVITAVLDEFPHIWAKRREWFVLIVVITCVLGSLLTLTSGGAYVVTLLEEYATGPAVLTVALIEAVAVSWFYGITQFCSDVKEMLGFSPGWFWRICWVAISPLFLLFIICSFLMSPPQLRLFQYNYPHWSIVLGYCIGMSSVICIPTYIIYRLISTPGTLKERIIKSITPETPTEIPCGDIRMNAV
Experimental: A protocol similar to that used by Cheetham et al., Neuropharmacol. […] Briefly, frontal cortical membranes prepared from male Sprague-Dawley rats were incubated with ^3H-paroxetine (0.1 nM) for 60 minutes at 25° C. […] All reactions are terminated by the addition of ice cold Tris buffer followed by rapid filtration using a Tom Tech filtration device to separate bound from free ^3H-paroxetine.

| Structure (SMILES) | Ki [1] [nM] | Emax [2] [%] | Emax [3] [%] | Ki (serotonin transporter) [nM] |
| --- | --- | --- | --- | --- |
| Fc1ccc2[nH]cc([C@H]3CC[C@@H](N4CCN(c5cccc6[nH]ccc56)CC4)CC3)c2c1 [Example 3a, 5-Fluoro-3-[cis-4-[4-(1H-indol-4-yl)-1-piperazinyl]cyclohexyl]-1H-indole] | 36.7 | 10 | 0 |  |
| N#Cc1ccc2[nH]cc([C@H]3CC[C@@H](N4CCN(c5cccc6[nH]ccc56)CC4)CC3)c2c1 [Example 7a, 3-{4-[(1,4-cis)-4-(1H-Indol-4-yl)-piperazinyl-1-yl]cyclohexyl}-1H-indole-5-carbonitrile] |  | 0 | 0 | 1.62 |
| c1cc(N2CCN([C@H]3CC[C@H](c4c[nH]c5ncccc54)CC3)CC2)c2cc[nH]c2c1 [Example 10b, 3-{(1,4-trans)-4-[4-(1H-Indole-4-yl)-piperazin-1-yl]-cyclohexyl}-1H-pyrrolo[2,3-b]pyridine] | 7.78 | 14 | 79 |  |
| COc1ccccc1C1CCN([C@H]2CC[C@H](c3c[nH]c4ccc(F)cc43)CC2)CC1 [Example 19b, 5-Fluoro-3-{(1,4-trans)-4-[4-(2-methoxy-phenyl)-piperidin-1-yl]-cyclohexyl}-1H-indole] | 26.2 | 74 | 92 |  |
| COc1ccc2[nH]cc([C@H]3CC[C@H](N4CCN(c5ccccc5OC)CC4)CC3)c2c1 [Example 20b, 5-Methoxy-3-{(1,4-trans)-4-[4-(2-methoxy-phenyl)-piperazin-1-yl]-cyclohexyl}-1H-indole] | 14.9 | 33 | 75.5 |  |
| Fc1ccc2c(c1)[nH]cc2[C@H]1CC[C@H](N2CCN(c3cccc4c3OCCO4)CC2)CC1 [Example 25b, 3-{(1,4-trans)-4-[4-(2,3-Dihydro-benzo[1,4]dioxin-5-yl)-piperazin-1-yl]-cyclohexyl}-6-fluoro-1H-indole] | 9.66 | 46 |  | 58 |
| N#Cc1ccc2[nH]cc([C@H]3CC[C@@H](N4CCN(c5cccc6c5OCCO6)CC4)CC3)c2c1 [Example 26a, 3-{(1,4-cis)-4-[4-(2,3-Dihydro-benzo[1,4]dioxin-5-yl)-piperazin-1-yl]-cyclohexyl}-1H-indole-5-carbonitrile] | 59.1 | 18 | 0 | 4.1 |
| N#Cc1ccc2[nH]cc([C@H]3CC[C@H](N4CCN(c5cccc6c5OCCO6)CC4)CC3)c2c1 [Example 26b, 3-{(1,4-trans)-4-[4-(2,3-Dihydro-benzo[1,4]dioxin-5-yl)-piperazin-1-yl]-cyclohexyl}-1H-indole-5-carbonitrile] | 8.5 | 39 |  | 23 |
| N#Cc1ccc2[nH]cc([C@H]3CC[C@H](N4CCN(c5cccc6cccnc56)CC4)CC3)c2c1 [Example 29b, 3-[(1,4-trans)-4-(4-Quinolin-8-yl-piperazin-1-yl)-cyclohexyl]-1H-indole-5-carbonitrile] |  | 70 |  |  |
